The source of these data is PMC8539251, “Peimine, an Anti-Inflammatory Compound from Chinese Herbal Extracts, Modulates Muscle-Type Nicotinic Receptors” (International Journal of Molecular Sciences, 2021).

The target of test [1] is T1, muscle-type nicotinic acetylcholine receptor (nAChR) (Torpedo marmorata, UniProt P02711+Q6S3H8+Q6S3H9+Q6S3I0).
T1 construct: gene CHRNA1; purified native nAChR reconstituted in asolectin lipids, microtransplanted to Xenopus oocytes; with β1, γ and δ nAChR subunits (heteropentamer 2α1, β1, δ, γ)
Kind of test: two-electrode voltage clamp in Xenopus oocytes, inhibition of […] ACh-elicited currents (peak; steady-state IC50 […]). Type of test: cell-based. A general note: In two-electrode clamp one electrode senses voltage and the other passes current.

The target of test [2] is T1, muscle-type nicotinic acetylcholine receptor (nAChR). Description: two-electrode voltage clamp in Xenopus oocytes, agonist concentration-response. Type of test: cell-based.

T1 sequence (P02711 25-461): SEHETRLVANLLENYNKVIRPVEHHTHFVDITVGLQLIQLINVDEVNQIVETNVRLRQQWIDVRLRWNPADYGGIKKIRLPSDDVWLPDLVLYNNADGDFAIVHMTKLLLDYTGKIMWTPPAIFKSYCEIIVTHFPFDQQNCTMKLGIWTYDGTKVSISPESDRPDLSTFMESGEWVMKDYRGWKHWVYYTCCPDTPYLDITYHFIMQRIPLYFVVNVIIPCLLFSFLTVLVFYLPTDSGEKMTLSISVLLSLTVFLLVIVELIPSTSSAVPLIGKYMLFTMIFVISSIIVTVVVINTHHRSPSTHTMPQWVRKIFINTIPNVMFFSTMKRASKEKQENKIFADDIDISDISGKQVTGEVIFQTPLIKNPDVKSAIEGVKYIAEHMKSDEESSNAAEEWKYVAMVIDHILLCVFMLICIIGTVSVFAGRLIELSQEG
T1 sequence (Q6S3I0 25-493): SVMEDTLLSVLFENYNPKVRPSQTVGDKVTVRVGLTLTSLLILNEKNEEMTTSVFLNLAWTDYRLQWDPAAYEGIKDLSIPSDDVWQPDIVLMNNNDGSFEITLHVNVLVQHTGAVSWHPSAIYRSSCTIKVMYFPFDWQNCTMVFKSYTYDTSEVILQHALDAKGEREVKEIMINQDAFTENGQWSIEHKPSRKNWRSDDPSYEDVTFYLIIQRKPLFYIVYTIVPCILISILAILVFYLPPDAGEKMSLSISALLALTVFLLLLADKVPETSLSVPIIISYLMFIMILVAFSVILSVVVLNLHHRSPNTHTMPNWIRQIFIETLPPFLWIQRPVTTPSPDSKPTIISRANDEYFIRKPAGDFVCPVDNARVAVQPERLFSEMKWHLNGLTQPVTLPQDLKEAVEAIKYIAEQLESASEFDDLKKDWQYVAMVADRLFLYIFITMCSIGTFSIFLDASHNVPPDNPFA
T1 sequence (Q6S3H9 18-505): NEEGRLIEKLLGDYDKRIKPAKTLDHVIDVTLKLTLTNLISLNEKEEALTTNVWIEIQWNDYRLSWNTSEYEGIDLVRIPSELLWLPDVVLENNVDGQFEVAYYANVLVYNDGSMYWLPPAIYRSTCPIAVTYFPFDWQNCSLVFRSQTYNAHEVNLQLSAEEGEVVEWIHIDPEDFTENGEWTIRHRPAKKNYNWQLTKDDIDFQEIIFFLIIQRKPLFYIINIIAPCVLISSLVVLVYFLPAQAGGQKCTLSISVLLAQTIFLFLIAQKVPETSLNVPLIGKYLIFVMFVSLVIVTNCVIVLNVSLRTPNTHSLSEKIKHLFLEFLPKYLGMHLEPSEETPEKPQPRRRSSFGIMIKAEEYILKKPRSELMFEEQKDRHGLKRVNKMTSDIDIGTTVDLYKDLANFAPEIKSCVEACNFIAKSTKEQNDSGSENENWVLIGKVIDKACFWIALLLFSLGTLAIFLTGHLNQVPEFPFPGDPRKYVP
T1 sequence (Q6S3H8 22-522): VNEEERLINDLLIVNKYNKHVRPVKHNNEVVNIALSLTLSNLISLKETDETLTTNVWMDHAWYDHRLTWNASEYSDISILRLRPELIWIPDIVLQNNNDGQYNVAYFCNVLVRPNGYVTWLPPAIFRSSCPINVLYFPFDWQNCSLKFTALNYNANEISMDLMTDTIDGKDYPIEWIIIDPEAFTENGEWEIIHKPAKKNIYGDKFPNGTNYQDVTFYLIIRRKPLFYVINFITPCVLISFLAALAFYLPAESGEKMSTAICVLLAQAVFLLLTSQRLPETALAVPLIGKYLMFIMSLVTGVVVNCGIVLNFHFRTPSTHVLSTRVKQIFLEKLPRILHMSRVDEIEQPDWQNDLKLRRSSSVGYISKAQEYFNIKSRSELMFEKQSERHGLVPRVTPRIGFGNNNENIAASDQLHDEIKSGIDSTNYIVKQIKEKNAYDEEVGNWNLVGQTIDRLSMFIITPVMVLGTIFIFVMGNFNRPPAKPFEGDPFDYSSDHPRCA

A word on the IC50: it is the point on the concentration scale where inhibition reaches its midpoint. Consider `C[C@H]1CC[C@@H]2N(C1)C[C@H]1[C@@H]3C[C@H]4[C@@H](C[C@H](O)[C@H]5C[C@@H](O)CC[C@@]54C)[C@@H]3CC[C@@H]1[C@]2(C)O` [Pm, Peimine], for which, in test [1], the half-maximal inhibitory concentration (IC50) was found to be 2.9 µM. The term EC50 denotes the concentration at which the effect is half-maximal. Low values mean a more potent agent, high ones a less potent agent. For the molecule `CC(=O)OCC[N+](C)(C)C` [ACh, acetylcholine], the concentration giving a half-maximal response (EC50) in test [2] amounted to 31 µM.
